Assay results as given in US8993635B2, “Method of increasing or maintaining the reproductive performance of sows” (Pork CRC Ltd, priority 2010, dated 2015).
Marks after values point to notes of the source that are not given here.

Assays:
[1] = test system: Large White/Landrace parity 1 sows; experiment: Paylean (ractopamine) treatment during first lactation: maternal catabolism, post-weaning fertility, piglet growth, milk composition (Example 2); assay type: in vivo, pig; details: for MMD loss in lactation (mm): maximum eye muscle depth; for Live weight loss in lactation (kg) Days 1-7 / Live weight loss in lactation (kg) Days 8-14 / Live weight loss in lactation (kg) Days 15-20: parity 1 sows, ractopamine 10 ppm days 1-13, 20 ppm from day 14 until mating; for 2nd litter size: Born alive / 2nd litter size: Total born: second litter; for Proportion sows exhibiting oestrus: within 10 days of weaning
Protocol: This experiment was conducted at the University of Adelaide's Pig and Poultry Production Institute (PPPI) at Roseworthy, South Australia, with approval from the animal ethics committees of Primary Industries and Resources South Australia and The University of Adelaide. The experiment used sixty Large White/Landrace parity 1 sows, and was conducted in four replicates: replicates one and two were run in October and November 2006, respectively (spring); and replicates three and four were run in March and April 2007, respectively (autumn).
At entry into the farrowing shed, Sixty Large White/Landrace first parity sows were weighed, and P2 backfat and maximum eye muscle depth (MMD) measured. Sows were then stratified according to both liveweight and body composition and allocated to one of two treatment groups (n=30 sows). One group (Control) received a standard lactation diet (0.71 g avail. lys/MJ DE) throughout lactation, whilst the other group (Ractopamine) received the same standard lactation diet but supplemented with ractopamine at 10 parts per million (ppm) from days 1-13 of lactation and 20 ppm from day 14 of lactation until mating. Dietary treatments commenced on day 1 of lactation (Day 0=first 24 hours after farrowing). During lactation, the amount of feed offered each day was stepped up gradually, reaching 6 kg/day by day 7 of lactation, and was fed over three meals per day, with daily feed disappearance recorded for each sow. Weaning took place 21 days after farrowing, and between weaning and first Al sows received 3 kg/day of their respective diets. Sows were weighed, and P2 backfat and MMD measured on days 1, 7, 14 and 20 of lactation. Gilts were weighed prior to being fed, and P2 backfat and MMD were measured over the last rib 65 mm down from the vertebrae by an experienced commercial operator using a 3.5 MHz linear probe (Ausonics Impact). Litter size was standardised to 9 piglets within 24 hours of farrowing, with piglets receiving only maternal milk as their feed source and weighed on days 1, 7, 13 and 20 of their mother's lactation. Maternal milk samples were collected on days 3, 13 and 20 of lactation and analysed for fat and protein content.
After weaning, sows were housed in groups of three or four. Boar exposure commenced on the fourth day after weaning, consisted of 15 minutes of full, physical boar contact and was conducted in a detection mating area (DMA). At their first oestrus after weaning, sows two artificial inseminations (AIs), 24 hours apart.
All Als took place in the DMA, with fence-line contact with a boar during the procedure. Inseminations were performed as per standard industry practice using disposable spirette catheters, with each insemination consisting of an 80 ml dose of fresh, extended semen (3×10^9 spermatozoa per inseminate; <4 days old). Semen used for this experiment was purchased from a commercial artificial insemination collection centre (SABOR Pty. Ltd, Clare, South Australia). Sows not detected in oestrus by 10 days after weaning were described as anoestrous.

[2] = test system: large white first parity sows; experiment: Supplementary ractopamine in the lactation diet: sow weight loss and subsequent reproductive performance (Example 1); assay type: in vivo, pig
From the text: Sixty large white first parity sows were allocated to one of two treatment groups (n=30 sows/treatment). One group (CONT) received a standard lactation diet (0.71 g available lysine/MJ digestible energy (DE)) throughout lactation, whilst the other group (RAC) received the standard lactation diet supplemented with ractopamine at 10 ppm from d 1-13 of lactation and 20 ppm from d 14 of lactation until mating. The amount of feed offered each day was stepped up gradually, reaching 5 kg/day by d 4 of lactation, and maintained at this level for the rest of lactation. Sows were weighed and P2 backfat measured on d 1, 14 and 20 of lactation, the litter size standardised to 9 piglets within 24 hours of lactation. Sows were weaned on d 21 of lactation, with boar exposure commencing 4 d after weaning and sows artificially inseminated twice at their first oestrus post-weaning. Subsequent reproductive performance of all sows was recorded: weaning-to-oestrus interval (WOI) and second litter size. Sows failing to epress eostrus within 10 d of weaning were deemed to be anoestrus and allocated a nominal weaning-to-oestrus interval of 15 d. A general analysis of variance model was used to study the effects of RAC supplementation on sow weight loss during lactation and subsequent reproductive performance.

## CC(CCc1ccc(O)cc1)NCC(O)c1ccc(O)cc1 (racemic) [Ractopamine, ractopamine]
[1]; after two AIs at first oestrus post-weaning
  Proportion mated sows pregnant: 0.91
[1]
  P2 backfat loss in lactation (mm): lost significantly less
  MMD loss in lactation (mm): similar
  Live weight loss in lactation (kg) Days 1-7: similar
  Live weight loss in lactation (kg) Days 8-14: similar
  Live weight loss in lactation (kg) Days 15-20: lost significantly less
  2nd litter size: Born alive: tendency (P=0.064) for the number of piglets born alive-at the second litter to be higher
  2nd litter size: Total born: numerical, but not significant, increase
  Proportion sows exhibiting oestrus: numerical, but not significant, reduction in the proportion of Control compared to Ractopamine sows
[1]; listed as Ractoparnine
  P2 backfat loss in lactation (mm): 2.44^b mm
  MMD loss in lactation (mm): 2.1 mm
  Live weight loss in lactation (kg) Days 1-7: 2.43 kg
  Live weight loss in lactation (kg) Days 8-14: 2.98 kg
  Live weight loss in lactation (kg) Days 15-20: 0.66^b kg
  2nd litter size: Born alive: 9.48**
  2nd litter size: Total born: 9.66
  Proportion sows exhibiting oestrus: 0.95
[1]; sows not in oestrus within 10 days assigned nominal 15 days
  Weaning-to-oestrus (d): similar
[1]; sows not in oestrus within 10 days assigned nominal 15 days, listed as Ractoparnine
  Weaning-to-oestrus: 6.39 days
[2]; anoestrus sows allocated nominal 15 d
  weaning-to-oestrus interval (WOI): 6.4 ± 0.63 days
[2]; first parity sows, ractopamine 10 ppm d 1-13, 20 ppm from d 14
  Lactation weight loss (kg) Days 1-14: 4.6 ± 1.41 kg
[2]; subsequent (second) litter
  Piglets born at second litter, Total born: 9.7 ± 0.54
[2]; within 10 d of weaning
  proportion of sows exhibiting oestrus within 10 d of weaning: 0.95±0.08
